Experimental data: patent US9186356B2, “Methods for treating frontotemporal lobar degeneration with ubiquitinated inclusions (FTLD-U)” (Academia Sinica, priority 2011, dated 2015)

What was measured:
FTLD-U mice = test: Motor function of FTLD-U mice treated with other autophagy inducers (FIG. 5); assay type: in vivo; conditions: tamoxifen 80 mg/Kg s.c. once per day one week, carbamazepine 50 mg/Kg i.p. once per day two weeks, spermidine 50 mg/Kg i.p. once per day one week
Protocol: Other autophage inducers for administration to the FTLD-U mice include tamoxifen, carbamazepine, calpastatin, minoxidial, spermidine and trehalose. […] Carbamazepine can lower inositol and IP3 levels. Calpastatin is a calpain inhibitor. Minoxidial is a K^+ATP channel opener. Spermidine can decrease ROS and increases beclin 1. The effect of trehalose is unknown. Tamoxifen (80 mg/Kg) was administered via subcutaneous injection, once per day for one week. carbamazepine (50 mg/Kg) was administered i.p. once per day for two weeks. Spermidine (50 mg/Kg) was administered i.p. once per day for one week.

ALS mice (SOD1G93A) = conditions: cited from earlier work

NCCCCNCCCN [spermidine]
motor function deficits (FTLD-U mice): rescued the motor function deficits

CO[C@H]1C[C@@H]2CC[C@@H](C)[C@@](O)(O2)C(=O)C(=O)N2CCCC[C@H]2C(=O)O[C@H]([C@H](C)C[C@@H]2CC[C@@H](O)[C@H](OC)C2)CC(=O)[C@H](C)/C=C(\C)[C@@H](O)[C@@H](OC)C(=O)[C@H](C)C[C@H](C)/C=C/C=C/C=C/1C [rapamycin]
mitochondria impairment (ALS mice (SOD1G93A)): more server mitochondria impairment

CC/C(=C(\c1ccccc1)c1ccc(OCCN(C)C)cc1)c1ccccc1 [tamoxifen]
motor function deficits (FTLD-U mice): rescued the motor function deficits

NC(=O)N1c2ccccc2C=Cc2ccccc21 [carbamazepine]
motor function deficits (FTLD-U mice): rescued the motor function deficits
